Measurements reported in patent US20190292243A1, “PEPTIDES AND METHODS OF USE THEREOF” (Fred Hutchinson Cancer Research Center, priority 2016, published 2019).
Square brackets hold non-standard residues; d marks the D form. Ends that are not written are not given here. Peptide text beside a SMILES is read from it. * marks the point of attachment. Dolaproine = CO[C@@H]([C@@H]1CCCN1)[C@@H](C)C(=O)O; Dil = CC[C@H](C)[C@H](NC)[C@@H](CC(=O)O)OC; X1 = C[C@@H](N*)[C@@H](O)c1ccccc1; NMeV = CN[C@H](C(=O)O)C(C)C

Key:
[1] = system: A375 cells and RH28 cells; test: Modulation of SEQ ID NO: 15-A accumulation in cells by small molecule drugs (flow cytometry median fluorescence); type: cell-based; settings: drug at increasing concentrations with 1 μM SEQ ID NO: 15-A
Excerpt: This example illustrates the small molecule drug enhancing properties of peptides of this disclosure. Peptides of this disclosure were useful in enhancing or dampening the potency of several small molecule drugs. […] The Approved Oncology Drugs Plated Set VII was obtained from NCI and included histone deacetylase (HDAC) inhibitors such as vorinostat, belinostat, panobinostat, and […]. The tested set also included tyrosine kinase inhibitors, protease inhibitors, and anthracyclines. A375 cells and RH28 cells were plated at 10,000 cells per well in 96 well plates and allowed to adhere overnight. […] Cells were washed three times with PBS-FBS and once in PBS. Cells were trypsinized, resuspended in PBS-FBS-DAPI, and assessed for average fluorescence as compared to untreated cells by flow cytometry analysis. […] Cells were washed three times with PBS-FBS and once in PBS. Cells were trypsinized, resuspended in PBS-FBS-DAPI, and assessed for average fluorescence as compared to untreated cells by flow cytometry analysis.

[2] = system: Caspase-3 activation in Ramos lymphoma tumor, liver, kidney; test: Caspase-3 staining of tissues after MMAE or peptide-MMAE conjugate; type: in vivo, female Harlan athymic mice; settings: 7.5 nmol, 48 hours after single systemic administration
Method: This example illustrates whole-body autoradiography and Caspase-3 staining after administration of peptide conjugated to MMAE. MMAE was conjugated to a peptide of SEQ ID NO: 26 with a Val-Cit-PABC linker to produce a SEQ ID NO: 26-B peptide conjugate (SEQ ID NO: 26-B). 7.5 nmol MMAE or 7.5 nmol SEQ ID NO: 26-B were administered to RH-28 tumor-bearing or Ramos lymphoma tumor-bearing female Harlan athymic mice and allowed to freely circulate for 24 or 48 hours.

[3] = system: RH28 flank tumors; test: Chirality in tumor homing, RH28 flank tumors (ex vivo IVIS); set-up: species or system mice; settings: AF647 conjugates, 10 nmol per mouse intravenously, one hour
Method: This example illustrates the role of chirality in tumor homing peptides of this disclosure. Each L-enantiomer in a peptide of SEQ ID NO: 15 was replaced with the corresponding D-enantiomer (SEQ ID NO: 36). Both peptides were conjugated to AlexaFluor 647 and tumor homing, and homing to the liver and kidneys was assessed by fluorescence quantification. […] Peptide-AF647 conjugates were administered intravenously to mice bearing RH28 flank tumors at 10 nmol per mouse. Mice were euthanized one hour post-administration, organs were necropsied, and tissues were analyzed ex vivo using an IVIS imager. P-values were determined using an unpaired Student's t-test.

[4] = system: RH28 cell line; test: Relative viability of RH28 cells; type: cell-based; settings: various doses
Method: (§1) This example describes the viability different cell lines to MMAE or MMAE-peptide conjugates and toxicity induced by delivery of MMAE to cells by a peptide conjugate of the disclosure. A peptide of SEQ ID NO: 26 was expressed recombinantly or chemically synthesized and then conjugated to a therapeutic agent, MMAE, by a Val-Cit-PAB linker, producing SEQ ID NO: 26-B peptide conjugate (SEQ ID NO: 26-B). HeLa cells were treated in vitro with MMAE, SEQ ID NO: 26 peptide, or SEQ ID NO: 26-B, and viability was quantified. Ewing's Sarcoma cell lines including the RH28 cell line, A673 cell line, and A204 cell line, were treated in vitro with MMAE or SEQ ID NO: 26-B for 48-72 hours and viability of cells was quantified.

[5] = system: A673 cell line; test: Relative viability of A673 cells; type: cell-based; settings: various doses
Method: as §1

[6] = system: A204 cell line; test: Relative viability of A204 cells; type: cell-based; settings: 48 hours after administration, various doses
Method: as §1

[7] = system: RH-28 tumor; test: Whole-body autoradiography after peptide-MMAE conjugate administration, RH-28 tumor; type: in vivo, female Harlan athymic mice; settings: 14 nmol, 24 hours after administration
Excerpt: This example illustrates whole-body autoradiography and Caspase-3 staining after administration of peptide conjugated to MMAE. MMAE was conjugated to a peptide of SEQ ID NO: 26 with a Val-Cit-PABC linker to produce a SEQ ID NO: 26-B peptide conjugate (SEQ ID NO: 26-B). […]
At the end of the dosing period, mice were frozen in a hexane/dry ice bath and then frozen in a block of carboxymethylcellulose. […] Thin, frozen sections of mice were obtained with a microtome, allowed to desiccate in a freezer, and exposed to phosphoimager plates for about ten days.
These plates were developed, and the signal (densitometry) from each organ was normalized to the signal found in the heart blood of each mouse. A signal in tissue darker than the signal expected from blood in that tissue indicates peptide accumulation in a region, tissue, structure or cell.

[8] = 72 hours of continuous treatment

Cn1c(=O)n(-c2ccc(C(C)(C)C#N)cc2)c2c3cc(-c4cnc5ccccc5c4)ccc3ncc21 [BEZ235]
modulation of accumulation of SEQ ID NO: 15-A in tumor cells (median fluorescence vs untreated) [1]: modulate the accumulation of peptides of this disclosure to tumor cells

CC[C@H](C)[C@@H]([C@@H](CC(=O)N1CCC[C@H]1[C@H](OC)[C@@H](C)C(=O)N[C@H](C)[C@@H](O)c1ccccc1)OC)N(C)C(=O)[C@@H](NC(=O)[C@@H](NC)C(C)C)C(C)C [MMAE, monomethyl auristatin E] (H-[NMeV]V[Dil][Dolaproine]-X1)
Caspase-3 staining in tumor, liver and kidney [2]: induction of apoptosis

Nc1ccn([C@@H]2O[C@H](CO)[C@@H](O)[C@@H]2O)c(=O)n1 [cytarabine]
modulation of accumulation of SEQ ID NO: 15-A in tumor cells (median fluorescence vs untreated) [1]: modulate the accumulation of peptides of this disclosure to tumor cells

O=C(CCCCCCC(=O)Nc1ccccc1)NO [vorinostat]
modulation of accumulation of SEQ ID NO: 15-A in tumor cells (median fluorescence vs untreated) [1]: modulate the accumulation of peptides of this disclosure to tumor cells

GSSCEPGRTFRDRCNTCRCGADGRSAACTLRACPNQ (not fully specified (some residues); ends and bridges not checked) [SEQ ID NO: 15]
homing to RH28 flank tumor (average radiant efficiency fluorescence), L- vs D-amino acid peptide [3]: higher homing to flank tumor than a peptide of SEQ ID NO: 36

SEQ ID NO: 15-B (GSSCEPGRTFRDRCNTCRCGADGRSAACTLRACPNQ; cysteine pairing not given here; also: conjugate B)
relative viability / growth of RH28 cells ([4]; 48 hours after administration): inhibited growth of all three cell lines | relative viability / growth of A673 cells ([5]; 48 hours after administration): inhibited growth of all three cell lines | relative viability / growth of A204 cells [6]: inhibited growth of all three cell lines

SEQ ID NO: 26-B (GSSCEPGRTFRDRCNTCKCGADGRSAACTLRACPNQ; cysteine pairing not given here; also: conjugate B)
relative viability / growth of RH28 cells [4, 8]: inhibited growth of both cell lines | relative viability / growth of A673 cells [5, 8]: inhibited growth of both cell lines

SEQ ID NO: 26-Br (GSSCEPGRTFRDRCNTCKCGADGRSAACTLRACPNQ; cysteine pairing not given here; also: conjugate Br)
14C signal distribution in tissues (autoradiography) [7]: accumulation in the RH-28 tumor

bleomycin
modulation of accumulation of SEQ ID NO: 15-A in tumor cells (median fluorescence vs untreated) [1]: modulate the accumulation of peptides of this disclosure to tumor cells
